ChEMBL document CHEMBL4229406, “The tyrosinase inhibitory effects of isoxazolone derivatives with a (Z)-β-phenyl-α, β-unsaturated carbonyl scaffold” (Bioorg Med Chem, 2018)

Columns and labels:
[1] = Antioxidant activity assessed as DPPH-radical scavenging activity at 1 mM incubated for 30 mins under dark condition; assay type: functional
[2] = molecular target: T1, Tyrosinase (Agaricus bisporus, UniProt O42713); assay: Inhibition of mushroom tyrosinase using L-tyrosine as substrate measured after 30 mins
T1 sequence (O42713 whole entry): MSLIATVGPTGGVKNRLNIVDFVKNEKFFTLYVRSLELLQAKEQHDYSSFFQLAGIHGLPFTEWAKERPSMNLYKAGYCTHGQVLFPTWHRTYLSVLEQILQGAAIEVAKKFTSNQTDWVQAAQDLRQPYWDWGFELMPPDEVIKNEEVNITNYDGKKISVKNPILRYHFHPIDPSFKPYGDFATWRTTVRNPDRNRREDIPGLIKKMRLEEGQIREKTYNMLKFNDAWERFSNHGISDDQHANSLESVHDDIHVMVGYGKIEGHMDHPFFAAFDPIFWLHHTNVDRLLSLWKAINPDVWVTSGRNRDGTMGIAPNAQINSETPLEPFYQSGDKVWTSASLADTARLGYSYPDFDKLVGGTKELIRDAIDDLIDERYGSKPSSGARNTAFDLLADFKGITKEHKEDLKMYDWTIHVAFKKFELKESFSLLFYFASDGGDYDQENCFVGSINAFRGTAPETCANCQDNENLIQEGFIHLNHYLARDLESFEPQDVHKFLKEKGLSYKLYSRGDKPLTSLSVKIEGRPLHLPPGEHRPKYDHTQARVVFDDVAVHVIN

[3] = molecular target: T2, Tyrosinase (Agaricus bisporus) (UniProt O42713); details: 500 uM
T2 sequence (whole entry): T1 sequence (O42713 whole entry)
Description: Inhibition of mushroom tyrosinase at 500 uM using L-tyrosine as substrate measured after 30 mins relative to control

[4] = molecular target: T2, Tyrosinase (Agaricus bisporus); assay: Competitive inhibition of mushroom tyrosinase using varying levels of L-tyrosine as substrate measured after 30 mins by Lineweaver-Burk plot analysis
[5] = molecular target: T3, Tyrosinase (Mus musculus) (UniProt P11344); assay: Inhibition of tyrosinase in alpha-MSH stimulated mouse B16F10 cells using L-dopa as substrate pretreated for 24 hrs followed by substrate addition and measured after 30 mins
T3 sequence (whole entry): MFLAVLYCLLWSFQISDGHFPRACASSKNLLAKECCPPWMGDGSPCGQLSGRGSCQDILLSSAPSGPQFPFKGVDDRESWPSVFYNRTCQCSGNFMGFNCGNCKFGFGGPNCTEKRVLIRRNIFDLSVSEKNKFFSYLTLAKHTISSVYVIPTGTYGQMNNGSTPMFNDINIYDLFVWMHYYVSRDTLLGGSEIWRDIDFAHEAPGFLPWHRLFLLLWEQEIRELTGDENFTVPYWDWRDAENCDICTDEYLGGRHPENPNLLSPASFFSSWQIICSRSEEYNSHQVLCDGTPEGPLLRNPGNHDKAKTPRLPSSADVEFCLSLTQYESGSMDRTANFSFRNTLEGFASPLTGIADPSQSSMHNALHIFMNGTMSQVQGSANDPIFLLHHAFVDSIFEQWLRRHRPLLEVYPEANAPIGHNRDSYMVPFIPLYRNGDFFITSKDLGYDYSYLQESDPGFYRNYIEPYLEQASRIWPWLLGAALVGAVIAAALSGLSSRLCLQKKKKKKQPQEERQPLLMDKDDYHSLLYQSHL

[6] = Cytotoxicity against mouse B16F10 cells assessed as cell viability at 5 uM after 24 hrs by MTT assay relative to control; assay type: cell-based, B16-F10; details: read-out: Activity
[7] = Cytotoxicity against mouse B16F10 cells assessed as cell viability at 25 uM after 24 hrs by MTT assay relative to control; assay type: cell-based, B16-F10; details: read-out: Activity
[8] = Cytotoxicity against mouse B16F10 cells assessed as cell viability at 10 uM after 24 hrs by MTT assay relative to control; assay type: cell-based, B16-F10; details: read-out: Activity
[9] = system: B16-F10; assay: Antimelanogenic activity in mouse B16F10 cells assessed as inhibition of alpha-MSH-stimulated melanin synthesis measured after 24 hrs by ELISA; assay type: functional, cell-based

SMILES	Activity [1] [%]	also measured
COc1cc(/C=C2\C(=O)ON=C2c2ccccc2)cc(OC)c1O	94.8	
O=C1ON=C(c2ccccc2)/C1=C/c1ccc(O)c(O)c1	98.6	
O=C1ON=C(c2ccccc2)/C1=C/c1ccccc1O	74.4	
O=C1ON=C(c2ccccc2)/C1=C/c1ccc(O)cc1O	46	IC50 [2]: 32.1 µM
COc1ccc(/C=C2\C(=O)ON=C2c2ccccc2)cc1	47.2	
O=C1ON=C(c2ccccc2)/C1=C/c1ccc(O)cc1	48.4	
OC[C@H]1O[C@@H](Oc2ccc(O)cc2)[C@H](O)[C@@H](O)[C@@H]1O		inhibition [3]: 32.6%
O=C1O[C@H]([C@@H](O)CO)C(O)=C1O	87.5	
CCOc1ccc(/C=C2\C(=O)ON=C2c2ccccc2)cc1O	66.4	
COc1ccc(/C=C2\C(=O)ON=C2c2ccccc2)cc1O	54.2	
O=C1ON=C(c2ccccc2)/C1=C/c1ccc(O)c(Br)c1	82.6	inhibition [4]: Dose-dependent effect; IC50 [2]: 14.6 µM; inhibition [5]: Dose-dependent effect; viability at 24 h, 5 µM [6]: 100%; viability at 24 h, 25 µM [7]: 96.3%; viability at 24 h, 10 µM [8]: 98.7%; inhibition [9]: Dose-dependent effect
COc1ccc(/C=C2\C(=O)ON=C2c2ccccc2)cc1OC	49.8	
COc1ccc(/C=C2\C(=O)ON=C2c2ccccc2)c(OC)c1	41.8	
COc1cc(/C=C2\C(=O)ON=C2c2ccccc2)ccc1O	75.3	
